Assay results: ChEMBL document CHEMBL1122762, “(+/-)-3-(4-Amino-1H-pyrrolo[2,3-d]pyrimidin-1-yl)-5-(hydroxymethyl)- (1 alpha,2 alpha,3 beta,5 beta)-1,2-cyclopentanediol, the carbocyclic analogue of tubercidin” (J Med Chem, 1984)

Assays:
HEp-2 [1] = assay: Compound was evaluated for cytotoxicity against H.Ep.-2 cells, and concentration required to inhibit the growth of treated cells to 50% of untreated control.; assay type: functional, cell-based; conditions: Homo sapiens
L1210 (1565) [2] = assay: Compound was evaluated for cytotoxicity against L-1210 cells, and concentration required to inhibit the growth of treated cells to 50% of untreated control.; assay type: functional, cell-based; conditions: Mus musculus
[3] = system: S-adenosyl-L-homocysteinase (Mus musculus); assay: Inhibition of S-adenosyl-L-homocysteinase from L-1210 cells
L1210 (1565) [4] = assay: (§1) Compound was evaluated for cytotoxicity against L-1210 (AK-) cells, and concentration required to inhibit the growth of treated cells to 50% of untreated control.; assay type: functional, cell-based; conditions: Mus musculus
HEp-2 [5] = assay: Compound was evaluated for cytotoxicity against H.Ep.-2 cells and concentration required to inhibit the growth of treated cells to 50% of untreated control was reported; assay type: functional, cell-based; conditions: Homo sapiens
L1210 (1565) [6] = assay: as §1; assay type: functional, cell-based; conditions: Mus musculus; remark: listed apart in the source
HEp-2 [7] = assay: Compound was evaluated for cytotoxicity against H.Ep.-2 (AK-) cells and concentration required to inhibit the growth of treated cells to 50% of untreated control; assay type: functional, cell-based; conditions: Homo sapiens

Structure (SMILES): Nc1ncnc2c1ccn2[C@@H]1C[C@H](CO)[C@H](O)C1O (stereo not given in full)
- IC50 (HEp-2 [1]): 1.4 µM
- IC50 (L1210 (1565) [2]): 4 µM
- Ki [3]: 44 µM
- IC50 (L1210 (1565) [4]): > 40 µM

Structure (SMILES): Nc1nccc2c1ncn2[C@@H]1O[C@H](CO)[C@@H](O)[C@H]1O
- IC50 (HEp-2 [1]): 20 µM

Structure (SMILES): Nc1[nH]ccc2ncnc1-2
- IC50 (HEp-2 [5]): 7 µM

Structure (SMILES): Nc1ncnc2[nH]ccc12
- IC50 (HEp-2 [1]): > 70 µM

Structure (SMILES): Nc1nccc2c1ncn2[C@@H]1C[C@H](CO)[C@H](O)C1O (stereo not given in full)
- IC50 (HEp-2 [1]): 0.6 µM
- IC50 (L1210 (1565) [2]): 4 µM
- IC50 (L1210 (1565) [4]): 1 µM
- IC50 (L1210 (1565) [6]): 1 µM

Structure (SMILES): Nc1ncnc2c1ncn2[C@@H]1O[C@H](CO)[C@@H](O)[C@H]1O [ADENOSINE]
- IC50 (HEp-2 [1]): 0.7 µM
- IC50 (HEp-2 [7]): 20 µM

Structure (SMILES): Nc1ncnc2c1ccn2[C@@H]1O[C@H](CO)[C@@H](O)[C@H]1O [TUBERCIDIN]
- IC50 (HEp-2 [1]): 0.002 µM
- IC50 (HEp-2 [7]): > 3 µM
